Measurements taken from ChEMBL document CHEMBL6114940, “Exploring the pharmaceutical potential of ammonium organotrifluoroborate functional group: Comprehensive chemical, metabolic, and plasma stability evaluation” (Eur J Med Chem, 2024).
Blank lines part the entries; values can stand above or below the compound they belong to. Activity calls are given as the source filed them. The rule behind the calls is not given here.

Key:
[1] = tested on: A-375; test: Cytotoxicity against human A-375 assessed as reduction in cell viability at 300 uM incubated for 24 to 72 hrs by MTT assay relative to control; format: functional; conditions: time 24-72 hrs
[2] = tested on: U-87 MG; test: Cytotoxicity against human U-87 MG assessed as reduction in cell viability upto 100 uM incubated for 24 to 72 hrs by MTT assay; format: functional, cell-based; conditions: U-87MG ATCC, time 24-72 hrs
[3] = Stability of compound in 0.5 M NaOH assessed as N,N,N-trimethyl-1-(1-((3R,4R,5S,6R)-2,4,5-trihydroxy-6-(hydroxymethyl)tetrahydro-2H-pyran-3-yl)-1H-1,2,3-triazol-4-yl)methanaminium formation incubated for 72 hrs by LC-MS analysis; format: physicochemical
[4] = Stability of compound in 20 mM CH3COONH4 buffer at pH 5.8 assessed as 1-borono-N,N-dimethyl-N-((1-((3R,4R,5S,6R)-2,4,5-trihydroxy-6-(hydroxymethyl)tetrahydro-2H-pyran-3-yl)-1H-1,2,3-triazol-4-yl)methyl)methanaminium formation incubated for 72 hrs by LC-MS analysis; format: physicochemical; conditions: pH 5.8, 72 h
[5] = Stability of compound in 0.05 M HCL assessed as half life incubated for 72 hrs by LC-MS analysis; format: physicochemical
[6] = tested on: Fibroblast; test: Cytotoxicity against human fibroblast assessed as reduction in cell viability at 300 uM incubated for 24 to 72 hrs by MTT assay relative to control; format: toxicity, cell-based; conditions: time 24-72 hrs
[7] = Metabolic stability in mouse liver microsomes assessed as drug hydrolysis by measuring 1-borono-N,N-dimethyl-N-((1-((3R,4R,5S,6R)-2,4,5-trihydroxy-6-(hydroxymethyl)tetrahydro-2H-pyran-3-yl)-1H-1,2,3-triazol-4-yl)methyl)methanaminium formation incubated for 1 hrs by LC-MS/MS analysis; format: ADME, Microsome
[8] = Stability of compound in 50 mM Tris-HCL buffer at pH 7.4 assessed as 1-borono-N,N-dimethyl-N-((1-((3R,4R,5S,6R)-2,4,5-trihydroxy-6-(hydroxymethyl)tetrahydro-2H-pyran-3-yl)-1H-1,2,3-triazol-4-yl)methyl)methanaminium formation incubated for 72 hrs by LC-MS analysis; format: physicochemical; conditions: pH 7.4, 72 h
[9] = Stability of compound in 0.3 % H2O2 assessed as (3R,4R,5S,6R)-3-(4-((dimethylamino)methyl)-1H-1,2,3-triazol-1-yl)-6-(hydroxymethyl)tetrahydro-2H-pyran-2,4,5-triol formation incubated for 1 hrs by LC-MS analysis; format: physicochemical
[10] = Stability of compound in 0.05 M HCL assessed as solvolysis constant (K) incubated for 72 hrs by LC-MS analysis; format: physicochemical; design: unit not given beside the values; conditions: buffer
[11] = tested on: A-375; test: Cytotoxicity against human A-375 assessed as reduction in cell viability upto 100 uM incubated for 24 to 72 hrs by MTT assay; format: functional, cell-based; conditions: time 24-72 hrs
[12] = Stability of compound in 50 mM Tris-HCL buffer at pH 7.4 assessed as solvolysis constant (K) incubated for 72 hrs by LC-MS analysis; format: physicochemical; conditions: pH 7.4, 72 h
[13] = tested on: A-375; test: Cytotoxicity against human A-375 assessed as reduction in cell viability at 0.1 to 300 uM incubated for 72 hrs by MTT assay; format: functional, cell-based; conditions: dose 0.1-300 µM
[14] = Stability of compound at pH 7.5 in phosphate buffer at 2 mg/ml; format: physicochemical
[15] = Stability of compound in 0.9 % saline solution assessed as solvolysis constant (K) incubated for 72 hrs by LC-MS analysis; format: physicochemical; conditions: buffer
[16] = Stability of compound in 0.9 % saline solution assessed as 1-borono-N,N-dimethyl-N-((1-((3R,4R,5S,6R)-2,4,5-trihydroxy-6-(hydroxymethyl)tetrahydro-2H-pyran-3-yl)-1H-1,2,3-triazol-4-yl)methyl)methanaminium formation incubated for 72 hrs by LC-MS analysis; format: physicochemical; conditions: buffer
[17] = tested on: A-375; test: Cytotoxicity against human A-375 assessed as reduction in cell viability at 0.1 to 300 uM incubated for 24 to 48 hrs by MTT assay; format: functional, cell-based; conditions: dose 0.1-300 µM, time 24-48 hrs
[18] = Stability of compound in 50 mM Tris-HCL buffer at pH 7.4 assessed as half life incubated for 72 hrs by LC-MS analysis; format: physicochemical
[19] = Stability of compound in 0.05 M HCL assessed as 1-borono-N,N-dimethyl-N-((1-((3R,4R,5S,6R)-2,4,5-trihydroxy-6-(hydroxymethyl)tetrahydro-2H-pyran-3-yl)-1H-1,2,3-triazol-4-yl)methyl)methanaminium formation incubated for 72 hrs by LC-MS analysis; format: physicochemical; conditions: buffer
[20] = tested on: U-87 MG; test: Cytotoxicity against human U-87 MG assessed as reduction in cell viability at 0.1 to 300 uM incubated for 72 hrs by MTT assay; format: functional, cell-based; conditions: U-87MG ATCC, dose 0.1-300 µM
[21] = tested on: Fibroblast; test: Cytotoxicity against human fibroblast assessed as reduction in cell viability at 0.1 to 300 uM incubated for 72 hrs by MTT assay; format: toxicity, cell-based; conditions: dose 0.1-300 µM
[22] = Stability of compound in 0.5 M NaOH assessed as 1-borono-N,N-dimethyl-N-((1-((3R,4R,5S,6R)-2,4,5-trihydroxy-6-(hydroxymethyl)tetrahydro-2H-pyran-3-yl)-1H-1,2,3-triazol-4-yl)methyl)methanaminium formation incubated for 72 hrs by LC-MS analysis; format: physicochemical
[23] = Stability of compound in 20 mM CH3COONH4 buffer at pH 5.8 assessed as half life incubated for 72 hrs by LC-MS analysis; format: physicochemical; conditions: 20 mM ammonium acetate (CH3COONH4) buffer
[24] = tested on: U-87 MG; test: Cytotoxicity against human U-87 MG assessed as reduction in cell viability at 300 uM incubated for 24 to 72 hrs by MTT assay relative to control; format: functional, U-87MG ATCC; conditions: time 24-72 hrs
[25] = Stability of compound in 0.5 M NaOH assessed as half life incubated for 72 hrs by LC-MS analysis; format: physicochemical
[26] = tested on: Fibroblast; test: Cytotoxicity against human fibroblast assessed as reduction in cell viability upto 100 uM incubated for 24 to 72 hrs by MTT assay; format: toxicity, cell-based; conditions: time 24-72 hrs
[27] = Stability of compound in 0.5 M NaOH assessed as solvolysis constant (K) incubated for 72 hrs by LC-MS analysis; format: physicochemical; design: unit not given beside the values
[28] = Stability in mouse plasma measured after 1 hr by LC-HRMS analysis; format: ADME, cell-free; conditions: read-out: Stability
[29] = Stability of compound in 20 mM CH3COONH4 buffer at pH 5.8 assessed as solvolysis constant (K) incubated for 72 hrs by LC-MS analysis; format: physicochemical; design: unit not given beside the values; conditions: pH 5.8, 72 h
[30] = Stability of compound in 0.9 % saline solution assessed as half life incubated for 72 hrs by LC-MS analysis; format: physicochemical
[31] = tested on: U-87 MG; test: Cytotoxicity against human U-87 MG assessed as reduction in cell viability at 0.1 to 300 uM incubated for 24 to 48 hrs by MTT assay; format: functional, cell-based; conditions: U-87MG ATCC, dose 0.1-300 µM, time 24-48 hrs
[32] = tested on: Fibroblast; test: Cytotoxicity against human fibroblast assessed as reduction in cell viability at 0.1 to 300 uM incubated for 24 to 48 hrs by MTT assay; format: toxicity, cell-based; conditions: dose lower 0.1 µM, time lower 24 hrs, dose upper 300 µM, time upper 48 hrs
[33] = Stability of compound in 20 mM CH3COONH4 buffer at pH 5.8 assessed as N-(boronomethyl)-N-butyl-N-(2-(2-(2-(((2R,3R,4S,5S,6R)-3,4,5-trihydroxy-6-(hydroxymethyl)tetrahydro-2H-pyran-2-yl)oxy)ethoxy)ethoxy)ethyl)butan-1-aminium formation incubated for 72 hrs by LC-MS analysis; format: physicochemical; conditions: pH 5.8, 72 h
[34] = Stability of compound in 0.5 M NaOH assessed as N-(boronomethyl)-N-butyl-N-(2-(2-(2-(((2R,3R,4S,5S,6R)-3,4,5-trihydroxy-6-(hydroxymethyl)tetrahydro-2H-pyran-2-yl)oxy)ethoxy)ethoxy)ethyl)butan-1-aminium formation incubated for 72 hrs by LC-MS analysis; format: physicochemical
[35] = Metabolic stability in mouse liver microsomes assessed as drug hydrolysis by measuring N-(boronomethyl)-N-butyl-N-(2-(2-(2-(((2R,3R,4S,5S,6R)-3,4,5-trihydroxy-6-(hydroxymethyl)tetrahydro-2H-pyran-2-yl)oxy)ethoxy)ethoxy)ethyl)butan-1-aminium formation incubated for 1 hr by LC-MS/MS analysis; format: ADME, Microsome
[36] = Stability of compound in 0.9 % saline solution assessed as N-(boronomethyl)-N-butyl-N-(2-(2-(2-(((2R,3R,4S,5S,6R)-3,4,5-trihydroxy-6-(hydroxymethyl)tetrahydro-2H-pyran-2-yl)oxy)ethoxy)ethoxy)ethyl)butan-1-aminium formation incubated for 72 hrs by LC-MS analysis; format: physicochemical; conditions: buffer
[37] = Stability of compound in 0.5 M NaOH assessed as N-butyl-N-methyl-N-(2-(2-(2-(((2R,3R,4S,5S,6R)-3,4,5-trihydroxy-6-(hydroxymethyl)tetrahydro-2H-pyran-2-yl)oxy)ethoxy)ethoxy)ethyl)butan-1-aminium formation incubated for 72 hrs by LC-MS analysis; format: physicochemical
[38] = Stability of compound in 0.3 % H2O2 assessed as (2R,3R,4S,5S,6R)-2-(2-(2-(2-(dibutylamino)ethoxy)ethoxy)ethoxy)-6-(hydroxymethyl)tetrahydro-2H-pyran-3,4,5-triol formation incubated for 1 hrs by LC-MS analysis; format: physicochemical
[39] = Stability of compound in Tris-HCL buffer at pH 7.4 assessed as N-(boronomethyl)-N-butyl-N-(2-(2-(2-(((2R,3R,4S,5S,6R)-3,4,5-trihydroxy-6-(hydroxymethyl)tetrahydro-2H-pyran-2-yl)oxy)ethoxy)ethoxy)ethyl)butan-1-aminium formation incubated for 72 hrs by LC-MS analysis; format: physicochemical; conditions: pH 7.4, 72 h
[40] = Stability of compound in phosphate/D2O buffer at pH 7.4 assessed as drug hydrolysis by measuring N-(boronomethyl)-N-butyl-N-(2-(2-(2-(((2R,3R,4S,5S,6R)-3,4,5-trihydroxy-6-(hydroxymethyl)tetrahydro-2H-pyran-2-yl)oxy)ethoxy)ethoxy)ethyl)butan-1-aminium formation incubated for 72 hrs by LC-MS analysis; format: physicochemical; conditions: pH 7.4, 72 h
[41] = Stability of compound in 50 mM HCL assessed as N-(boronomethyl)-N-butyl-N-(2-(2-(2-(((2R,3R,4S,5S,6R)-3,4,5-trihydroxy-6-(hydroxymethyl)tetrahydro-2H-pyran-2-yl)oxy)ethoxy)ethoxy)ethyl)butan-1-aminium formation incubated for 72 hrs by LC-MS analysis; format: physicochemical; conditions: buffer

Stability [3]: Stable
Stability [4]: Stable
half-life [5]: 0.904 h
Drug metabolism [7]: metabolite_detected
Stability [8]: Stable
Stability [9]: Stable
K [10]: 0.766
K [12]: 0.017
Stability [14]: Stable
K [15]: 0.038
Stability [16]: Stable
half-life [18]: 25 h
Stability [19]: Stable
Stability [22]: Stable
half-life [23]: ~0.0794 h
half-life [25]: ≥ 20.9 h
K [27]: 0.016
remaining at 1 h [28]: 4.15%
K [29]: 8.731
half-life [30]: 18.3 h
Structure (SMILES): C[N+](C)(Cc1cn([C@@H]2[C@@H](O)[C@H](O)[C@@H](CO)O[C@@H]2O)nn1)C[B-](F)(F)F
Activity [1]: -15%
Activity [2]: Active
Activity [6]: -15%
Activity [11]: Active
Activity [13]: Active
Activity [17]: Active
Activity [20]: Active
Activity [21]: Non-toxic
Activity [24]: -15%
Activity [26]: Non-toxic
Activity [31]: Active
Activity [32]: Non-toxic

Stability [33]: Stable
half-life [5]: 0.265 h
Stability [34]: Stable
Drug metabolism [35]: metabolite_detected
K [10]: 2.617
Stability [36]: Stable
Stability [37]: Stable
K [12]: 0.086
Stability [38]: Stable
K [15]: 0.102
half-life [18]: 8.07 h
Stability [39]: Stable
Stability [40]: Stable
half-life [23]: 22.8 h
half-life [25]: 8.47 h
Stability [41]: Stable
K [27]: 0.082
remaining at 1 h [28]: 8.89%
K [29]: 0.03
half-life [30]: 6.82 h
Structure (SMILES): CCCC[N+](CCCC)(CCOCCOCCO[C@@H]1O[C@H](CO)[C@@H](O)[C@H](O)[C@H]1O)C[B-](F)(F)F
